These results are taken from patent publication US20070298994A1, “Use of 3-Mercapto-3-Methyl-Hexan-1-Ol for Use as Malodour Standard” (SYMRISE GMBH & CO. KG, priority 2004, published 2007).

A short description of the first assay: Raw material test against sweat odour (masking of malodour standard, assessor panel).
Details: not given
Regarding `CCCCCCCC1CCC(=O)O1` (stereo not drawn) [5-HEPTYL-2-DIHYDROFURANONE], the “Increase In intensity” value turned out to be 1.1 and the Odour reduction value is 3.8.

Still in this assay, the particulars now being: Table 1; 1 μl fragrance + 5 μl 3-mercapto-3-methyl-hexan-1-ol (0.1% in DPG) in 7 l air, 15 h at approx. 20° C.; scale 1 to 9, malodour standard mixture = 6; mean of at least 8 assessors.
For the compound `CC(=O)CC(C)(C)c1ccccc1` [4-METHYL-4-PHENYL-2-PENTANONE], the “Increase In intensity” value is reported as 1.4 and the Odour reduction value is on record as 4.2.

`COC(=O)c1ccccc1N=CC(C)Cc1ccc(C(C)(C)C)cc1` (stereo not drawn) [2-[[3-[4-1 1-DIMETHYLETHYL)PHENYL)-2-METHYLPROPLIDEN]AMINO]-BENZOIC ACID METHYL ESTER]: the “Increase In intensity” value is listed as −0.4 and the Odour reduction value is 3.3.

For the compound `CCOC(=O)C1=C(C)C=CCC1(C)C` [2,6,6-TRIMETHYL-1,3-CYCLOHEXADIENE CARBOXYLIC ACID ETHYL ESTER], the “Increase In intensity” value was −2.8 and the Odour reduction value is 3.0.

Consider `CCCCC1COCC(C)C1OC(C)=O` (stereo not drawn) [3-BUTYL-TETRAHYDRO-5-METHYL-PYRAN-4-OL ACETATE], for which the “Increase In intensity” value came out at 1.0 and the Odour reduction value stood at 3.0.

Take `Cc1cccc(CC(C)(C)C(C)O)c1` (stereo not drawn) [ALPHA.BETA.BETA.3-TETRAMETHYL-BENZENE PROPANOL]: the “Increase In intensity” value was determined as 0.2 and the Odour reduction value is on record as 4.6.

`CC(CO)CCCc1ccccc1` (stereo not drawn) [2-METHYL-5-PHENYL PENTANOL]: the “Increase In intensity” value was −0.5 and the Odour reduction value is listed as 5.1.

As to `CC(C)=CCCC(C)=CCCC(C)C=O` (stereo not drawn), the “Increase In intensity” value was 0.2 and the Odour reduction value is reported as 3.8.

Take `O=C1CCCCCC/C=C/CCCCCCC1` [(E)-8-CYCLOHEXADECEN-1-ONE]: the “Increase In intensity” value came out at 0.2 and the Odour reduction value was 4.0.

With `CCCCCCOC(=O)c1ccccc1O` [SALICYLIC ACID HEXYL ESTER], the “Increase In intensity” value is given as 1.7 and the Odour reduction value is 3.7.

`C=CC(C)(C#N)Cc1ccccc1` (stereo not drawn) [ALPHA-ETHENYL-ALPHA-METHYL-BENZENE PROPANE NITRILE]: the “Increase In intensity” value turned out to be 1.0 and the Odour reduction value worked out at 4.2.

Take `CC(=O)OCCC(C)C` [ACETIC ACID-3-METHYLBUTYL ESTER]: the “Increase In intensity” value is 1.3 and the Odour reduction value was determined as 5.8.

Turning to `CC(C)=CCC(C)(C)C(=O)C(C)C`, the “Increase In intensity” value is listed as 1.0 and the Odour reduction value is listed as 3.3.

With `CC(=CO)CCC1CC=C(C)C1(C)C` (stereo not drawn), the “Increase In intensity” value is listed as 0.3 and the Odour reduction value is on record as 3.8>.

Regarding `COC1CCCCCCCCCCC1` [CYCLODODECYL METHYL ETHER], the “Increase In intensity” value was determined as 0.7 and the Odour reduction value is recorded as 3.1.

Take `CC(=CCC1CCC=C(C)C1(C)C)CO` (stereo not drawn): the “Increase In intensity” value is 0.0 and the Odour reduction value is 3.0.

For the compound `CCCC1CCOC(C)S1` (stereo not drawn) [(Z)-2-METHYL-4-PROPYL-1,3-OXATHIANE], the “Increase In intensity” value was 0.0 and the Odour reduction value came to 3.1.

In the case of `COCc1ccccc1O` [2-METHOXYMETHYLPHENOL], the “Increase In intensity” value is on record as −2.1 and the Odour reduction value is 3.8.

Regarding `CC(=O)C(C)=CC1C(C)=CCCC1(C)C` (stereo not drawn), the “Increase In intensity” value is listed as −0.7 and the Odour reduction value is 5.1.

`CC1=C[C@H](C)[C@H](C=O)CC1` (relative stereo): the “Increase In intensity” value is on record as −1.3 and the Odour reduction value is recorded as 4.4.

As to `O=Cc1ccc2c(c1)OCO2` [3,4-METHYLENDIOXYBENZALDEHYDE], the “Increase In intensity” value is −1.2 and the Odour reduction value is 3.7.

As for `CCCCCCC1(C)CCC(=O)O1` (stereo not drawn) [4-METHYL-GAMMA-DECALACTONE], the “Increase In intensity” value turned out to be 0.9 and the Odour reduction value is given as 5.6.

`C/C=C/C(=O)C1CCC(C)(C)C=C1C` (stereo not drawn): the “Increase In intensity” value came out at 1.0 and the Odour reduction value is given as 5.0.

For the compound `C/C(=C\C#N)CCc1ccccc1` [(E)-3-METHYL-5-PHENYL-2-PENTENE NITRILE], the “Increase In intensity” value was 1.2 and the Odour reduction value was 5.1.

For the compound `C/C=C(\C)C(=O)OC/C=C(\C)CCC=C(C)C` [TIGLIC ACID GERANYL ESTER], the “Increase In intensity” value worked out at 0.8 and the Odour reduction value worked out at 4.5.

Turning to `COCc1ccc(O)c(OC)c1` [2-METHOXY-4-METHOXYMETHYL-PHENOL], the “Increase In intensity” value is recorded as −0.1 and the Odour reduction value stood at 4.1.

On to `C=CC(C)(O)CCC=C(C)C` (stereo not drawn) [LINALOOL], for which the “Increase In intensity” value is on record as 1.0 and the Odour reduction value was 5.0.

Regarding `CC(=O)c1cc2c(cc1C)C(C)(C)C(C)CC2(C)C` (stereo not drawn) [6-ACETYL-1,1,2,4,4,7-[…]], the “Increase In intensity” value was 0.0 and the Odour reduction value was 3.1.

As for `c1ccc2c(c1)CC1COCOC21` (stereo not drawn) [1,4A,9,9A-TETRAHYDRO-2,4-DIOXA-FLUORENE], the “Increase In intensity” value amounted to 1.0 and the Odour reduction value was found to be 4.3.

Turning to `COC(=O)c1c(C)cc(O)c(C)c1O` [2,4-DIHYDROXY-3.6-DIMETHYLBENZOIC ACID METHYL ESTER], the “Increase In intensity” value turned out to be 1.3 and the Odour reduction value came out at 3.8.

As to `CC(C)c1ccc(CC=O)cc1` [4-(1-METHYLETHYL)-PHENYL ACETALDEHYDE], the “Increase In intensity” value turned out to be 1.7 and the Odour reduction value was found to be 3.8.

Regarding `CCCC(=O)C(CC)Cc1ccccc1` (stereo not drawn), the “Increase In intensity” value was 0.1 and the Odour reduction value stood at 4.6.

As for `CCC(O)CC[C@H]1[C@@H](C)CCCC1(C)C` (relative stereo), the “Increase In intensity” value was found to be 0.8 and the Odour reduction value worked out at 3.1.

As for `O=C1CCCCCCCCC/C=C/CCCO1`, the “Increase In intensity” value stood at 0.0 and the Odour reduction value stood at 4.0.

On to `CC(C)[C@H]1CC[C@H](O)CC1` [TRANS-4-ISOPROPYL CYCLOHEXANOL], for which the “Increase In intensity” value was found to be 1.0 and the Odour reduction value is listed as 4.1.

Turning to `CCCCCCCCCCCC#N` [UNDECYL CYANIDE], the “Increase In intensity” value is listed as 1.6 and the Odour reduction value worked out at 3.3.

With `CC/C=C/CCOC(C)=O` [ACETIC ACID-3(E)-HEXENYL ESTER], the “Increase In intensity” value is 1.3 and the Odour reduction value came out at 3.1.

Take `C=CCCCCCCCCC=O` [10-UNDECENAL]: the “Increase In intensity” value was 1.6 and the Odour reduction value was determined as 3.3.

Consider `CC(=O)C1(C)CC2=C(CCCC2(C)C)CC1C` (stereo not drawn), for which the “Increase In intensity” value is 0.2 and the Odour reduction value is given as 3.4.

As to `CC1=CC(C)C(C(=O)C(C)(C)C)CC1` (stereo not drawn), the “Increase In intensity” value amounted to 1.4 and the Odour reduction value is listed as 3.5.

`CC(=O)c1cc2ccccc2o1` [2-ACETYLBENZOFURAN]: the “Increase In intensity” value worked out at 1.2 and the Odour reduction value worked out at 3.3.

In the case of `CC(=O)O[C@H]1CC[C@H](C(C)(C)C)CC1` [ACETIC-TRANS-4-TERT.-BUTYL CYCLOHEXYL ESTER], the “Increase In intensity” value is 0.2 and the Odour reduction value came to 5.1.

Consider `CC1=CCC(C(C)CC=O)CC1` (stereo not drawn), for which the “Increase In intensity” value was 0.9 and the Odour reduction value came out at 3.9.

Consider `CC(C)=CCCC(C)CCOCC=O` (stereo not drawn), for which the “Increase In intensity” value was 1.5 and the Odour reduction value turned out to be 3.8.

Staying with this assay, now noted: Table 2 (raw materials without adequate malodour-reducing action); 1 μl fragrance + 5 μl 3-mercapto-3-methyl-hexan-1-ol (0.1% in DPG) in 7 l air, 15 h; scale 1 to 9, standard = 6.
In the case of `CC(=O)O[C@@H]1C[C@H]2CC[C@]1(C)C2(C)C` (racemic) [ACETIC ACID ISOBORNYL ESTER, reference compound], the Increase in intensity is recorded as −0.5 and the Malodour reduction value was 2.3.

Consider `CC(=O)OCc1ccccc1` [BENZYL ACETATE, reference compound], for which the Increase in intensity is recorded as 0.4 and the Malodour reduction value is recorded as 2.5.

Consider `OCc1ccccc1` [BENZYL ALCOHOL, reference compound], for which the Increase in intensity is 2.0 and the Malodour reduction value is given as −2.0.

Staying with this assay, now noted: Table 3 (adequate malodour-reducing action but significant increase in intensity); 1 μl fragrance + 5 μl 3-mercapto-3-methyl-hexan-1-ol (0.1% in DPG) in 7 l air, 15 h; scale 1 to 9, standard = 6.
Regarding `CC(=O)OC1CC(C)CCC1C(C)C` (stereo not drawn) [MENTHYL ACETATE, reference compound], the Increase in intensity is on record as 2.9 and the Malodour-reduction value is reported as 4.4.

For `CCC(C)(O)CCCC(C)C` (stereo not drawn) [TETRAHYDROLINALOOL, reference compound], the Increase in intensity is 2.3 and the Malodour-reduction value is recorded as 3.0.

For `CC(C)=CCCC(C)=CC#N` [GERANYL NITRILE, 3,7-dimethyl-2,6-octadiene-1-nitrile, reference compound], the Increase in intensity is 3.0 and the Malodour-reduction value is listed as 5.0.

For `CCCCCCCCC=O` [NONANAL, reference compound], the Increase in intensity came to 2.1 and the Malodour-reduction value is reported as 3.0.

The assay is the same for the next values; noted with them: Table 4, tests with the mixtures (Example 2), according to the raw material test method.
On to `CCOC(=O)c1ccccc1C(=O)OCC` [DEP, diethyl phthalate, reference compound], for which the Increase in intensity is on record as −0.1 and the Malodour reduction value was 0.0.

Staying with this assay, now noted: prior-art fragrances examined by the applicant.
`CC(C)=CCCC(C)=CC#N` [GERANYL NITRILE, 3,7-dimethyl-2,6-octadiene-1-nitrile, reference compound]: the “intrinsic odour / perfumistic impression (in words)” value is “strong intrinsic odour” and the “reduction in the bad odour based on 3-mercapto-3-methyl-hexan-1-ol (in words)” value is given as “does show a reduction in the bad odour”.

The assay is the same for the next values; noted with them: solvents.
Regarding `CCOC(=O)c1ccccc1C(=O)OCC` [DEP, diethyl phthalate, reference compound], the “effect on the intensity of the bad odour” value is listed as “no effect” and the “effect on the total intensity” value is recorded as “no effect”.
